The experiment addresses T1, OGT (O-GlcNAc transferase) (Homo sapiens, UniProt O15294).
T1 construct: full-length OGT, recombinant, purified; plasmid gift of D. J. Vocadlo
T1 sequence (O15294 2-1036 isoform O15294-3): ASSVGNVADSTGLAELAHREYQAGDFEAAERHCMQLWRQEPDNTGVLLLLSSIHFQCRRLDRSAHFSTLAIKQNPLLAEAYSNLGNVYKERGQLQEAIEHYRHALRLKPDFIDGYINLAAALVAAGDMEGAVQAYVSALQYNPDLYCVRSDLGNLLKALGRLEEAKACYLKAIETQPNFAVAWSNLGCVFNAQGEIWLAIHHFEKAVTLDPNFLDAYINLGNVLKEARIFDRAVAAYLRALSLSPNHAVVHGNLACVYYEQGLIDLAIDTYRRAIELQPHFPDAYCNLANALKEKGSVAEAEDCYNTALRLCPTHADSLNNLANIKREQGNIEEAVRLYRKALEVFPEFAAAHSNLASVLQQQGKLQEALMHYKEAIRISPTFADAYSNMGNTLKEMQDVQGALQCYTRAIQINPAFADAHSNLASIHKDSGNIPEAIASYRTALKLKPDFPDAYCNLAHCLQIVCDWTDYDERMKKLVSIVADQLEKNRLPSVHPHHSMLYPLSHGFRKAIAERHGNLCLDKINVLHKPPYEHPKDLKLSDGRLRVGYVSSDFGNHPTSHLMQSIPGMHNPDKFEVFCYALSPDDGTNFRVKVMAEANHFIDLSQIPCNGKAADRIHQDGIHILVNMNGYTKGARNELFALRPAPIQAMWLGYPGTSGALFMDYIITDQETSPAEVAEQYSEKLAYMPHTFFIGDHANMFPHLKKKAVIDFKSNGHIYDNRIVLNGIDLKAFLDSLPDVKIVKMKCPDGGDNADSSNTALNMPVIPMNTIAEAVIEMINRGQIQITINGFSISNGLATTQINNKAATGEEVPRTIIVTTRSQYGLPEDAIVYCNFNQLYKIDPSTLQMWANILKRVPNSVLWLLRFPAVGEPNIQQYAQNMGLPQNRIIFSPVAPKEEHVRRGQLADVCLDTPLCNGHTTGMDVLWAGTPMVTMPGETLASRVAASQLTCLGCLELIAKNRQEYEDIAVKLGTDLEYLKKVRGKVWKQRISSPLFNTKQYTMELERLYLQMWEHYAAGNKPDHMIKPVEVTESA
Put plainly: UDP-Glo glycosyltransferase assay, luminescence. It counts as biochemical.

Read-outs that look alike come from different tables or passages of the source.

For the compound `O=C1C[C@@H](c2ccc(O)c(-c3c(O)cc(O)c4c3O[C@H](c3ccc(O)cc3)CC4=O)c2)Oc2cc(O)cc(O)c21` [L01], under “250 nM OGT, 125 μM CKII peptide, 40 μM UDP-GlcNAc, pH 7.4, time-dependent, not fully UDP-GlcNAc competitive”, the IC50 was 21.8 µM.

Compound `COc1ccccc1[C@@H](NS(=O)(=O)c1ccc2[nH]c(=O)ccc2c1)C(=O)N(Cc1ccco1)Cc1cccs1` [OSMI-1] came in with an IC50 of 3.5 µM.

In general, IC50 refers to the concentration that inhibits the measured activity by half.
